Measured values published in patent US9957271B2, “Substituted bicyclic aza-heterocycles and analogues as sirtuin modulators” (GlaxoSmithKline, LLC, priority 2012, dated 2018).

Experiments:
[1] = target: T1, SIRT1 (Homo sapiens, UniProt Q96EB6); test: TAMRA based mass spectrometry assay of SIRT1 activity; format: biochemical; conditions: TAMRA assay; for TAMRA EC1.5 (μM): concentration giving 150% activation of SIRT1; for Emax: percent maximum fold activation, read-out: TAMRA % Fold Act
T1 sequence (Q96EB6 1-747): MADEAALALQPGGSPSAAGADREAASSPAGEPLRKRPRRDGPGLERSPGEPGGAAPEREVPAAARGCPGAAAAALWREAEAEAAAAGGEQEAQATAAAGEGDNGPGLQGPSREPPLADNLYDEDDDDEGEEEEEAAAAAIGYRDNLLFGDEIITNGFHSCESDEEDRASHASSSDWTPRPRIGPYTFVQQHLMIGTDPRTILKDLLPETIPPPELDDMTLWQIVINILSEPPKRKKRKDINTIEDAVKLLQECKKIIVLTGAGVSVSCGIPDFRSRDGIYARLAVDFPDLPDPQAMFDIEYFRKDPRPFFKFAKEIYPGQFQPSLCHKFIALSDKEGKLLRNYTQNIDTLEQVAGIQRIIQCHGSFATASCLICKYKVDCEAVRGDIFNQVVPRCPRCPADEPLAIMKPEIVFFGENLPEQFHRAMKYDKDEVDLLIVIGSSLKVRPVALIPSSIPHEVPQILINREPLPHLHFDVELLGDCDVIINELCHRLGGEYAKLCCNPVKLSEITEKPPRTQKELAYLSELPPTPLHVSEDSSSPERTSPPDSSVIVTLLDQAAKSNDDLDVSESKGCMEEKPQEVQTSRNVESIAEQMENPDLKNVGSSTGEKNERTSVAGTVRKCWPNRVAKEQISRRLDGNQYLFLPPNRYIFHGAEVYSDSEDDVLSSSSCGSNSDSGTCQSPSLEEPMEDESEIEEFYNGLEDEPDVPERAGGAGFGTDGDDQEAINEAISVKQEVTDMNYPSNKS
Outline: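 Recombinant N-terminal His-tagged human SIRT1 (10 nM, E. coli) incubated 25 min at 25 °C with 0.5 μM 5TMR-labelled p53-derived acetyl-peptide and 120 μM βNAD+ in Tris-acetate pH 8 buffer with DTT and 0.05% BSA, compound at varying concentrations. Stopped with formic acid; deacetylated peptide or OAADPR measured by mass spectrometry relative to DMSO controls.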

[2] = target: T1, SIRT1; test: Trp mass spectrometry assay of SIRT1 activity; format: biochemical; conditions: Trp assay; for Trp EC1.5 (μM): concentration giving 150% activation of SIRT1; for Emax: percent maximum fold activation, read-out: Trp % Fold Act
Outline: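 His-tagged SIRT1 expressed in E. coli BL21(DE3), 10 nM, incubated 25 min at 25° C. with 0.5 μM Ac-RHKK(Ac)W-NH2 peptide and 120 μM βNAD+ in 50 mM HEPES pH 7.5, […], 1 mM DTT, 0.05% BSA; formic acid stop. OAADPR or deacetylated peptide measured by mass spectrometry; EC1.5 and percent maximum activation versus DMSO control.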

Row | SMILES | TAMRA EC1.5 (μM) [1] | Emax [1] | Trp EC1.5 (μM) [2] | Emax [2]
1 | Cc1cnc(NC(=O)c2cnn3ccc(-c4ccccc4C(F)(F)F)nc23)c(C)n1 [Compound 724] | C (EC1.5>25 μM) | < 350% | B (EC1.5 1-25 μM) | < 350%
2 | Cc1cccc(C(=O)Nc2cnn3ccc(-c4ccccc4OC(F)(F)F)nc23)n1 [Compound 725] | A (EC1.5<1 μM) | ≥ 350% | B (EC1.5 1-25 μM) | < 350%
3 | CC(C)c1nccc(C(=O)Nc2cnn3ccc(-c4ccccc4OC(F)(F)F)nc23)n1 [Compound 728] | A (EC1.5<1 μM) | ≥ 350% | C (EC1.5>25 μM) | < 350%
4 | Cc1nc2c(C)cc(-c3ccccc3C(F)(F)F)nn2c1C(=O)Nc1ccnc(C(C)C)n1 [Compound 730] | A (EC1.5<1 μM) | ≥ 350% | A (EC1.5<1 μM) | ≥ 350%
5 | Cc1nc2c(C)cc(-c3ccccc3C(F)(F)F)nn2c1C(=O)Nc1ccnc(C(C)(C)C)n1 [Compound 731] | A (EC1.5<1 μM) | ≥ 350% | A (EC1.5<1 μM) | < 350%
6 | Cc1cnc(C(=O)Nc2cnn3ccc(-c4ccccc4OC(F)(F)F)nc23)cn1 [Compound 734] | B (EC1.5 1-25 μM) | ≥ 350% | C (EC1.5>25 μM) | < 350%
7 | Cc1cc(C)nc(C(=O)Nc2cnn3ccc(-c4ccccc4OC(F)(F)F)nc23)n1 [Compound 736] | A (EC1.5<1 μM) | ≥ 350% | C (EC1.5>25 μM) | < 350%
8 | Cc1cncc(NC(=O)c2c(C)nn3ccc(-c4ccccc4C(F)(F)F)nc23)n1 [Compound 737] | A (EC1.5<1 μM) | ≥ 350% | A (EC1.5<1 μM) | ≥ 350%
9 | Cc1ccc(NC(=O)c2c(C)nc3ccc(-c4ccccc4Cl)nn23)nn1 [Compound 742] | A (EC1.5<1 μM) | < 350% | C (EC1.5>25 μM) | < 350%
10 | COc1ccc(NC(=O)c2c(C)nc3ccc(-c4ccccc4Cl)nn23)nn1 [Compound 743] | B (EC1.5 1-25 μM) | < 350% | C (EC1.5>25 μM) | < 350%
11 | Cc1cccnc1C(=O)Nc1cnn2ccc(-c3ccccc3C(F)(F)F)nc12 [Compound 746] | A (EC1.5<1 μM) | ≥ 350% | C (EC1.5>25 μM) | < 350%
12 | O=C(Nc1cnn2ccc(-c3ccccc3C(F)(F)F)nc12)c1cccc(-n2cnnc2)n1 [Compound 748] | A (EC1.5<1 μM) | ≥ 350% | B (EC1.5 1-25 μM) | < 350%
13 | O=C(Nc1cnn2ccc(-c3ccccc3C(F)(F)F)nc12)c1ncc(F)cc1F [Compound 749] | A (EC1.5<1 μM) | ≥ 350% | B (EC1.5 1-25 μM) | < 350%
14 | Cc1nc(C(=O)Nc2cnn3ccc(-c4ccccc4OC(F)(F)F)nc23)cs1 [Compound 752] | B (EC1.5 1-25 μM) | ≥ 350% | B (EC1.5 1-25 μM) | < 350%
15 | O=C(Nc1cnn2ccc(-c3ccccc3OC(F)(F)F)nc12)c1ncccc1F [Compound 754] | A (EC1.5<1 μM) | ≥ 350% | B (EC1.5 1-25 μM) | < 350%
16 | O=C(Nc1cnn2ccc(-c3ccccc3OC(F)(F)F)nc12)c1ncc(F)cc1F [Compound 755] | A (EC1.5<1 μM) | ≥ 350% | B (EC1.5 1-25 μM) | < 350%
17 | COc1ccc(NC(=O)c2c(C)nc3ccc(-c4cccc(F)c4)nn23)nn1 [Compound 761] | C (EC1.5>25 μM) | < 350% | A (EC1.5<1 μM) | < 350%
18 | Cc1cccc(-c2ccc3nc(C)c(C(=O)Nc4cccnn4)n3n2)c1 [Compound 766] | A (EC1.5<1 μM) | < 350% | A (EC1.5<1 μM) | < 350%
19 | Cc1nc2ccc(-c3cccc(F)c3)nn2c1C(=O)Nc1cccnn1 [Compound 767] | B (EC1.5 1-25 μM) | < 350% | A (EC1.5<1 μM) | ≥ 350%
20 | O=C(Nc1cnn2ccc(-c3ccccc3OC(F)(F)F)nc12)c1nc(C(F)(F)F)cs1 [Compound 770] | B (EC1.5 1-25 μM) | ≥ 350% | C (EC1.5>25 μM) | < 350%
21 | Cc1nc2ccc(-c3cccc(OC[C@H](O)CO)c3)nn2c1C(=O)Nc1ccccn1 [Compound 772, (R)-6-(3-(2,3-dihydroxypropoxy)phenyl)-2-methyl-N-(pyridin-2-yl)imidazo[1,2-b]pyridazine-3-carboxamide] | B (EC1.5 1-25 μM) | ≥ 350% | B (EC1.5 1-25 μM) | ≥ 350%
22 | Cc1nc2c(OC[C@H](O)CO)cc(-c3ccccc3C(F)(F)F)nn2c1C(=O)Nc1cccnn1 [Compound 773, (R)-8-(2,3-dihydroxypropoxy)-2-methyl-N-(pyridazin-3-yl)-6-(2-(trifluoromethyl)phenyl)imidazo[1,2-b]pyridazine-3-carboxamide] | A (EC1.5<1 μM) | ≥ 350% | A (EC1.5<1 μM) | ≥ 350%
23 | O=C(Nc1cnn2ccc(-c3ccccc3OC(F)(F)F)nc12)c1cc(O)ncn1 [Compound 776] | B (EC1.5 1-25 μM) | ≥ 350% | C (EC1.5>25 μM) | < 350%
24 | COc1cc(NC(=O)c2c(C)nn3ccc(-c4ccccc4C(F)(F)F)nc23)ncn1 [Compound 778] | A (EC1.5<1 μM) | ≥ 350% | A (EC1.5<1 μM) | < 350%
25 | O=C(Nc1ccnc(O)c1)c1cnn2ccc(-c3ccccc3OC(F)(F)F)nc12 [Compound 779] | A (EC1.5<1 μM) | ≥ 350% | A (EC1.5<1 μM) | ≥ 350%
26 | Cc1cnc(C(=O)Nc2cnn3ccc(-c4ccccc4OC(F)(F)F)nc23)s1 [Compound 782] | A (EC1.5<1 μM) | ≥ 350% | C (EC1.5>25 μM) | < 350%
27 | Cc1nn2ccc(-c3ccccc3C(F)(F)F)nc2c1C(=O)Nc1ccnc(O)c1 [Compound 784] | A (EC1.5<1 μM) | ≥ 350% | A (EC1.5<1 μM) | ≥ 350%
28 | O=C(Nc1cnn2ccc(-c3ccccc3OC(F)(F)F)nc12)c1cscn1 [Compound 785] | B (EC1.5 1-25 μM) | ≥ 350% | C (EC1.5>25 μM) | < 350%
29 | Cc1nn2ccc(-c3ccccc3C(F)(F)F)nc2c1C(=O)Nc1ncc(F)cc1F [Compound 788] | B (EC1.5 1-25 μM) | ≥ 350% | B (EC1.5 1-25 μM) | ≥ 350%
30 | Cc1cccc(NC(=O)c2c(C)nc3ccc(-c4cccc(OC[C@H](O)CO)c4)nn23)n1 [Compound 790] | A (EC1.5<1 μM) | ≥ 350% | A (EC1.5<1 μM) | ≥ 350%
